Legend:
[1] = in vivo; assay type: in vivo; details: rat
[2] = tested on: CAL-62/effluc tumor; assay: Tumor growth by bioluminescent imaging in CAL-62/effluc mouse tumor model; assay type: in vivo, Nude mice (Balb/c nu/nu); details: 100 mpk, 200 mpk orally daily for 6 days
Experimental: (§3) Nude mice (Balb/c nu/nu, female, 6 weeks old) were used, and all animals were normally raised in DMRC center animal laboratory of Kyungbuk National University Hospital in Chilgok. 5×10^6 CAL-62/effluc cells were subcutaneously injected into the left femoral region of the nude mouse to form a tumor. The tumor was extracted, divided into small pieces (20 mg or more), and then intradermally injected into the nude mouse to form a tumor.
In order to observe a difference in tumor growth between before administration and after administration, optical imaging (bioluminescent imaging) was performed.
For obtaining an optical image, D-luciferin (3 mg/mouse) was intraperitoneally injected to the mouse. After about 10 minutes of injection, the mouse was anesthetized by inhalation (I-2% isoflurane gas), and then positioned on a IVIS Lumina III (PerkinElmer) imaging bed. The time for obtaining the image was automatically set, and then an optical image was obtained.

[3] = tested on: ERRγ; assay type: cell-based
[4] = molecular target: CYP1A2 (Homo sapiens (Human), UniProt P05177); assay: Cytochrome P450 activity inhibition, CYP1A2; assay type: in vitro ADME; details: 10 μM, human liver microsomes, Phenacetin substrate
From the text: (§1) 1) Cytochrome P450 (CYP450) Activity Inhibition Evaluation

[5] = tested on: NIS protein; assay: Western blot, total and membrane-localized NIS protein in CAL62 cells; assay type: cell-based
[6] = molecular target: GST-bound ERR alpha LBD (Homo sapiens (Human), UniProt P11474); details: TR-FRET, PGC1a coactivator; read-out: Binding Assay, IC50 ERRα
Experimental: The arylethene derivative of the present invention was sequentially added to a 384 well plate from a concentration of 10 μM to a final concentration of two-fold dilution. […] After all reagents were added, a reaction was carried out with gentle shaking at 20° C. for 1 hour, and after the reaction, a binding activity was measured by a TR-FRET method.

[7] = molecular target: hERG channel (Homo sapiens (Human), UniProt Q12809); details: read-out: hERG IC50; fluorescence polarization assay
[8] = molecular target: CYP2D6 (Homo sapiens (Human), UniProt P10635); assay: Cytochrome P450 activity inhibition, CYP2D6; assay type: in vitro ADME; details: 10 μM, human liver microsomes, Dextromethorphan substrate
From the text: as §1

[9] = tested on: ERRγ protein; assay: Western blot, ERRγ protein in CAL62 cells; assay type: cell-based; details: 24 hours
[10] = tested on: CAL62 cells; assay: Clonogenic assay with 131I; assay type: cell-based; details: CAL62 cells, single agent
Experimental: The cells were plated in a 6-well plate, and allowed to stand for 24 hours. […] The cells were washed with cold bHBSS, and allowed to stand in a normalized culture medium for a time corresponding to six doublings. Finally, the cells were fixed in a 4% paraformaldehyde (PFA) solution and stained with 0.05% crystal violet.

[11] = molecular target: CYP3A4 (Homo sapiens (Human), UniProt P08684); assay: Cytochrome P450 activity inhibition, CYP3A4; assay type: in vitro ADME; details: 10 μM, human liver microsomes, Midazolam substrate
From the text: as §1

[12] = molecular target: CYP2C9 (Homo sapiens (Human), UniProt P11712); assay: Cytochrome P450 activity inhibition, CYP2C9; assay type: in vitro ADME; details: 10 μM, human liver microsomes, Diclofenac substrate
From the text: as §1

[13] = in vitro; assay type: in vitro ADME; details: PBS pH 7.4, 25° C., 5 hours
[14] = tested on: ERRγ mRNA; assay: Quantitative RT-PCR, ERRγ mRNA in CAL62 cells; assay type: cell-based
Experimental: (§2) Total RNA was separated using Trizol (Invitrogen, Carlsbad, Calif.). Total RNA (2 ug) was reverse-transcribed into cDNA with RevertAid First Strand cDNA Synthesis Kit (Thermo Scientific, Pittsburgh, Pa.). Genes were amplified with a ViiA 7 Real-Time PCR System instrument (Applied Biosystems) using the primer of each target gene and YBR Green PCR master mix (Applied Biosystems, Foster City, Calif.), using a cDNA template. The primer sequence of each target gene is as follows: ERRγ (forward, 5′-CAG ACG CCA GTG GGA GCT A-3′; reverse, 5′-TGGCGAGTCAAGTCCGTTCT-3′), NIS (forward, 5′-TCTAACCGATGCTCACCTCTTCTG-3′; reverse, 5′-AGATGATGGCACCTCCTTGAACC-3′), and acidic ribosomal protein 36B4 (forward, 5′-CCA CGC TGC TGA ACA TGC T-3′; reverse, 5′-TCGAACACCTGCTGGATGAC-3′). Each target gene was normalized using a 36B4 gene.

[15] = tested on: CAL-62 anaplastic thyroid cancer cell line; assay type: cell-based; details: for each concentration and each time
[16] = molecular target: CYP2C19 (Homo sapiens (Human), UniProt P33261); assay: Cytochrome P450 activity inhibition, CYP2C19; assay type: in vitro ADME; details: 10 μM, human liver microsomes, S-mephenytoin substrate
From the text: as §1

[17] = tested on: CAL-62/effluc tumor; assay: 125I bio-distribution study in CAL-62/effluc mouse tumor model; assay type: in vivo, Nude mice (Balb/c nu/nu)
Experimental: as §3
After 4 hours of administration, all organs including a parent tumor were extracted, and each organ was weighed. Thereafter, each organ was transferred to a 5 mL test tube, and radioactivity in the organ was measured using a gamma counter.

[18] = tested on: NIS mRNA; assay: Quantitative RT-PCR, NIS mRNA in CAL62 cells; assay type: cell-based
Experimental: as §2

GST-bound ERR alpha LBD, sequence (P11474 193-421): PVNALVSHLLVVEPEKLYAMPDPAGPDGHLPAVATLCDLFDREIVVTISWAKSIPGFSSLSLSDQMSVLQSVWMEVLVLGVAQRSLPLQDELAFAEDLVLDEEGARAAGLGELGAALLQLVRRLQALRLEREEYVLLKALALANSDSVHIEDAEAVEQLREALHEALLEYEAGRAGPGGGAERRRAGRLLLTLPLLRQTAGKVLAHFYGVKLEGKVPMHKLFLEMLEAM
CYP2D6, sequence (P10635 whole entry): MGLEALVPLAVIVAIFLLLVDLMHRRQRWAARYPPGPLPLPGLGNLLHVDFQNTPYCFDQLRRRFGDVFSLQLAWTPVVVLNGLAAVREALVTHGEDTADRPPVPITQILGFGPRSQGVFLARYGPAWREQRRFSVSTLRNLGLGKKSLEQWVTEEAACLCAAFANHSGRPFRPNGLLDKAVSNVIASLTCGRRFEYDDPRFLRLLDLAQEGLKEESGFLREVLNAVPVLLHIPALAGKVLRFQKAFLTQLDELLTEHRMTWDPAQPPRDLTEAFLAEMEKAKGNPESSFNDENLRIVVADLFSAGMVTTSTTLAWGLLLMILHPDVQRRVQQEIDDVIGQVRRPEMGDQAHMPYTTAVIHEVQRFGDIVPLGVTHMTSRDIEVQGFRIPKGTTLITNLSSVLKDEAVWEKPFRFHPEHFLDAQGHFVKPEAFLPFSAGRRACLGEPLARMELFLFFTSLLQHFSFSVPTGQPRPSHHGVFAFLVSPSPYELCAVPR
CYP2C9, sequence (P11712 whole entry): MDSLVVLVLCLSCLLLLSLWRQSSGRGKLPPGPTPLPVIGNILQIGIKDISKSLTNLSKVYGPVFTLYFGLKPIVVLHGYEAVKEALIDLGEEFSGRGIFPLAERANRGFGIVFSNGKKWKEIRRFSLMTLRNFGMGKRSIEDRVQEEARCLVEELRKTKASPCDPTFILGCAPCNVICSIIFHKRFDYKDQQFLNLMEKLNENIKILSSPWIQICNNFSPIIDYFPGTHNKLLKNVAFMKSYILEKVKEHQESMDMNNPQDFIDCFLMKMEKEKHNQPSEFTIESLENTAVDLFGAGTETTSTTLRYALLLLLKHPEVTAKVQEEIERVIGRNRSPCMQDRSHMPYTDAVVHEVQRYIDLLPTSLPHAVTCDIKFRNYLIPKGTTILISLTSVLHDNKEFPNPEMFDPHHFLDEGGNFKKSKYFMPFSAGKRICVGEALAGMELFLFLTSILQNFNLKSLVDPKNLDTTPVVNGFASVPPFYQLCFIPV
CYP1A2, sequence (P05177 whole entry): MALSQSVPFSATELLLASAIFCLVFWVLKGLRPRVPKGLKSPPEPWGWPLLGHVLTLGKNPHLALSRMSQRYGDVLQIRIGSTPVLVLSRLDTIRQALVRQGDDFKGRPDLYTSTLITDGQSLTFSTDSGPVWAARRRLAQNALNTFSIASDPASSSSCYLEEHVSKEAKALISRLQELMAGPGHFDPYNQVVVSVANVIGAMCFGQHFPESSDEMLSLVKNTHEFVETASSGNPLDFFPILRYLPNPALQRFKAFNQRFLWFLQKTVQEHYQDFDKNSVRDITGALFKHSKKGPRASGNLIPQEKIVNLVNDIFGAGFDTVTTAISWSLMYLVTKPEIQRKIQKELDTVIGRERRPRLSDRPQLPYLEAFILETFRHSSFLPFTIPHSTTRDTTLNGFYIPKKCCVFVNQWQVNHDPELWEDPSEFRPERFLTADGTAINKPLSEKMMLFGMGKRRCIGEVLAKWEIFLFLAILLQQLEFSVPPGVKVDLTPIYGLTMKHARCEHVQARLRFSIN
CYP2C19, sequence (P33261 whole entry): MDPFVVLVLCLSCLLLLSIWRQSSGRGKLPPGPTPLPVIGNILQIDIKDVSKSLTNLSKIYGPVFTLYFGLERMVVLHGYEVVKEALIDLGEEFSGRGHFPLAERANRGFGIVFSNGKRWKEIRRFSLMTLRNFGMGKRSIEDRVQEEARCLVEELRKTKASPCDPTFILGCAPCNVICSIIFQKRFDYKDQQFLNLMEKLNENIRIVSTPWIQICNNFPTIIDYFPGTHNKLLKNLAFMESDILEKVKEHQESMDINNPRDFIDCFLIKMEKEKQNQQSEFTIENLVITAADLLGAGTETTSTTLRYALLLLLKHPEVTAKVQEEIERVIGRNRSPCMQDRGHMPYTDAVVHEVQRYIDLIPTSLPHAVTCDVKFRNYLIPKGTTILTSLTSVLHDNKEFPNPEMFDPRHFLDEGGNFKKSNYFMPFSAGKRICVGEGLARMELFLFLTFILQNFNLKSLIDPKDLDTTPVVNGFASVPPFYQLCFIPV
CYP3A4, sequence (P08684 whole entry): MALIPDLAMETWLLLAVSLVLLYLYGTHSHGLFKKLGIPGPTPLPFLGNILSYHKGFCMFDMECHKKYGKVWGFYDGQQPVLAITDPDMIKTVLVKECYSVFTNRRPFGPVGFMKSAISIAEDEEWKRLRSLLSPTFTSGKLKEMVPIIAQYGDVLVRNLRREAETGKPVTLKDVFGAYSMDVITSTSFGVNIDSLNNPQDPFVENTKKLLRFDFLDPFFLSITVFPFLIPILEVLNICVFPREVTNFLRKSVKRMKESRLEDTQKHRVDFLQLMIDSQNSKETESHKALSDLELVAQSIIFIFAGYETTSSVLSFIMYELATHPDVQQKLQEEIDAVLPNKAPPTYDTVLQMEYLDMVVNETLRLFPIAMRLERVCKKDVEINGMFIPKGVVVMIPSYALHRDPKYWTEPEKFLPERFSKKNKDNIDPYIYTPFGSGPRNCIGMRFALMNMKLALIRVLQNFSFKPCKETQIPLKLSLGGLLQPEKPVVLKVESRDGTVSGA

CC(C)N1CCN(c2ccc(C(=C(CCCO)c3ccccc3)c3ccc(O)cc3)cc2)CC1 [Compound 18a]
AUCINF ([1]; IV, 1 mg/kg): 0.49 μMh | AUCall ([1]; IV, 1 mg/kg): 0.42 μMh | Vss ([1]; IV, 1 mg/kg): 25.2 L/kg | t1/2 ([1]; IV, 1 mg/kg): 3.8 h | AUCINF ([1]; PO, 10 mg/kg): 1.29 μMh | AUCall ([1]; PO, 10 mg/kg): 0.81 μMh | BA ([1]; PO, 10 mg/kg): 21.4% | Tmax ([1]; PO, 10 mg/kg): 1.1 h | Cmax ([1]; PO, 10 mg/kg, read-out: Cmax): 210 nM | tumor growth (optical imaging) [2]: significant tumor growth inhibitory efficiency | Functional Assay at 10 μM (% of control), Cpds ([3]; 10 μM, 24 hours, AD293): 4.83 % of control | Functional Assay, Cpds/Ref 5182 ([3]; activity relative to reference compound GSK5182, 10 μM): 1.18 | CYP inhibition (% of control) 1A2 [4]: 88 % of control | increase in membrane fully glycosylated NIS protein ([5]; biotinylated membrane protein): 8.1 times | increase in membrane partially glycosylated NIS protein ([5]; biotinylated membrane protein): 6.4 times | total NIS protein expression, change compared with vehicle treated group ([5]; text says significantly increased, then 'decreased by'): about 1.9 times | IC50 [6]: > 10 µM | IC50 [7]: 18.7 µM | CYP inhibition (% of control) 2D6 [8]: 63.5 % of control | ERRγ protein expression, decrease compared with vehicle treated group [9]: about 2.8 times | cytotoxic effect, alone (clone formation assay) [10]: minimal cytotoxic effect | CYP inhibition (% of control) 3A4 [11]: 66.4 % of control | CYP inhibition (% of control) 2C9 [12]: 86.1 % of control | Permeability Pampa [13]: 0.46 10^−6 cm/s | ERRγ mRNA expression, decrease compared with vehicle treated group [14]: about 16 times | radioactive iodine uptake in CAL62 cells [15]: significant increase | CYP inhibition (% of control) 2C19 [16]: 81.2 % of control | radioactive uptake in CAL62 tumor, increase compared with vehicle group ([17]; 100 mpk orally daily for 6 days): 4.4 times | radioactive uptake in CAL62 tumor, increase compared with vehicle group ([17]; 200 mpk orally daily for 6 days): 16.2 times | NIS mRNA expression, increase compared with vehicle-treated group [18]: about 2 times

Reference: patent US10934303B2, “Aryl ethene derivative and pharmaceutical composition containing same as active ingredient” (priority 2016, dated 2021)
